Data: PubChem BioAssay (NCI)
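48-hour exposure; five concentrations; linearly interpolated endpoints. Here, GI50 denotes the concentration required for 50% inhibition of growth. TGI: total growth inhibition.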

Columns and labels:
Test in all cases: inhibition of tumour cell growth, NCI panel, 48 h
[1] = system: CAKI-1 renal
[2] = system: HCT-15 colon
[3] = system: LOX IMVI melanoma
[4] = system: NCI-H460 lung
[5] = system: RXF 393 renal
[6] = system: SK-MEL-5 melanoma
[7] = system: SNB-75 CNS
[8] = system: BT-549 breast
[9] = system: MDA-N
[10] = system: RPMI-8226 leukemia
[11] = system: MCF7 breast

Row | SMILES | TGI [1] | TGI [2] | TGI [3] | TGI [4] | TGI [5] | TGI [6] | TGI [7] | TGI [8] | TGI [9] | TGI [10] | TGI [11] | GI50 [8] | GI50 [1] | GI50 [2] | GI50 [4] | GI50 [6] | GI50 [7]
1 | COc1ccc(NC(=O)C(=O)Cc2nc3ccc([N+](=O)[O-])cc3[nH]c2=O)c(OC)c1 | > 100 µM | > 100 µM | > 100 µM | > 100 µM | > 100 µM | > 100 µM | > 100 µM | – | – | – | – | – | – | – | – | – | –
2 | COc1nc(N(C)C)nc2c1n(C)c[n+]2C | > 100 µM | > 100 µM | > 100 µM | > 100 µM | > 100 µM | > 100 µM | > 100 µM | > 100 µM | > 100 µM | > 100 µM | – | – | – | – | – | – | –
3 | Nc1nc(-c2ccccc2N=NN2CCCC2)nc2ccccc12 | 18.5 µM | 11.1 µM | 3.77 µM | 17.9 µM | 20.4 µM | 17.8 µM | 23.8 µM | 24.1 µM | – | 6.46 µM | 55.9 µM | – | – | – | – | – | –
4 | COc1ccc2c(c1)C(N)=C(c1ccccc1)C2=O | > 100 µM | > 100 µM | > 100 µM | > 100 µM | – | > 100 µM | 70 µM | > 100 µM | > 100 µM | > 100 µM | > 100 µM | – | – | – | – | – | –
5 | CC[N+](C)(CC)CCC(O)(c1ccccc1)c1ccccc1 | – | > 100 µM | > 100 µM | > 100 µM | > 100 µM | > 100 µM | > 100 µM | > 100 µM | > 100 µM | > 100 µM | > 100 µM | – | – | – | – | – | –
6 | COc1ccc(/C=c2\[nH]c3nc(=O)c(N4CCOCC4)c(N)n3c2=O)cc1 | > 100 µM | > 100 µM | > 100 µM | – | > 100 µM | > 100 µM | 64.5 µM | – | > 100 µM | > 100 µM | > 100 µM | – | – | – | – | – | –
7 | C/C(=C\c1ccccn1)c1ccccn1 | > 100 µM | > 100 µM | – | > 100 µM | > 100 µM | > 100 µM | > 100 µM | > 100 µM | > 100 µM | > 100 µM | > 100 µM | – | – | – | – | – | –
8 | N#Cc1nc(CCCCCN2C(=O)c3ccccc3C2=O)oc1N | > 100 µM | > 100 µM | > 100 µM | > 100 µM | > 100 µM | > 100 µM | – | > 100 µM | > 100 µM | > 100 µM | > 100 µM | – | – | – | – | – | –
9 | Cc1ccccc1-n1c(C)nc2c1C(=O)c1ccccc1C2=O | > 100 µM | > 100 µM | – | > 100 µM | > 100 µM | 53.7 µM | – | – | – | – | – | – | – | – | – | – | –
10 | CC(=O)/C(=C/n1c(=S)[nH]c2ccccc21)C(=O)Nc1ccccc1C | > 100 µM | > 100 µM | > 100 µM | > 100 µM | > 100 µM | > 100 µM | > 100 µM | > 100 µM | > 100 µM | – | – | – | – | – | – | – | –
11 | CC12N=NN(c3ccc([N+](=O)[O-])cc3)C1(O)c1ccccc1C2=O (centres undefined) | – | > 100 µM | > 100 µM | > 100 µM | > 100 µM | > 100 µM | – | – | – | > 100 µM | – | – | – | – | – | – | –
12 | OCC1OC(n2cnc3cncnc32)C(O)C1O (centres undefined) | 2.68 µM | 2.08 µM | 2.46 µM | 1.49 µM | 3.9 µM | 3.25 µM | 2.15 µM | – | – | 7.95 µM | 2.15 µM | – | – | – | – | – | –
13 | C/C=C\C(CC(=O)NCCc1cn(C(=O)OCc2ccccc2)c2ccccc12)CC(=O)OC (centres undefined) | > 100 µM | > 100 µM | – | > 100 µM | > 100 µM | > 100 µM | > 100 µM | > 100 µM | > 100 µM | > 100 µM | > 100 µM | – | – | – | – | – | –
14 | CC(C)=CCC/C(C)=C/CC/C(C)=C/Cc1c(O)c2ccccc2oc1=O | – | > 100 µM | > 100 µM | > 100 µM | > 100 µM | – | > 100 µM | – | – | > 100 µM | – | – | – | – | – | – | –
15 | N=c1oc2ccc3ccccc3c2cc1C(N)=O | > 100 µM | > 100 µM | > 100 µM | > 100 µM | > 100 µM | > 100 µM | > 100 µM | > 100 µM | > 100 µM | > 100 µM | – | – | – | – | – | – | –
16 | O=[N+]([O-])c1ccc2nc(-c3ccccn3)c(-c3ccccn3)nc2c1 | > 100 µM | > 100 µM | – | > 100 µM | > 100 µM | > 100 µM | > 100 µM | > 100 µM | > 100 µM | > 100 µM | > 100 µM | – | – | – | – | – | –
17 | COC(=O)C1CCC(=O)N1C(=O)Cc1ccc(OC)cc1 (centres undefined) | > 100 µM | > 100 µM | > 100 µM | > 100 µM | – | > 100 µM | > 100 µM | – | – | – | – | – | – | – | – | – | –
18 | Cc1cc(=O)n2nc(SCc3ccccc3)sc2n1 | – | > 100 µM | > 100 µM | > 100 µM | > 100 µM | > 100 µM | > 100 µM | > 100 µM | > 100 µM | > 100 µM | > 100 µM | – | – | – | – | – | –
19 | c1ccc(CCN2CCc3[nH]c4ccccc4c3C2)cc1 | – | 46.2 µM | 35.4 µM | 30.9 µM | 34.3 µM | 33.9 µM | 68 µM | – | – | > 10 µM | 40.9 µM | – | – | – | – | – | –
20 | CO/C(=N\N=C\c1cccc(Cl)c1)c1ccncc1 | > 10 µM | > 10 µM | > 10 µM | > 10 µM | > 10 µM | – | – | > 10 µM | > 10 µM | > 10 µM | > 10 µM | – | – | – | – | – | –
21 | Clc1ccc(N2N=C(c3cccc(Nc4ccncc4)c3)CC2c2ccc3c(c2)OCO3)cc1 (centres undefined) | 2.9 µM | 3.41 µM | – | 3.29 µM | – | 3.17 µM | 5.68 µM | 28.6 µM | – | – | – | 4.92 µM | 1.44 µM | 1.76 µM | 1.77 µM | 1.76 µM | 1.58 µM
22 | Cn1nc2n(c1=O)CCCN2 | – | > 100 µM | > 100 µM | > 100 µM | > 100 µM | > 100 µM | > 100 µM | – | > 100 µM | > 100 µM | – | – | – | – | – | – | –
23 | Cc1cc(O)c(C(C)C)cc1SC#N | 28.2 µM | 39.3 µM | 32.6 µM | 33.4 µM | 29.1 µM | 42.7 µM | 22.5 µM | 36.4 µM | – | 33.7 µM | 31.6 µM | – | – | – | – | – | –
